This note sets out measurements from patent US12134620B2 (ARAXES PHARMA LLC, priority 2018, dated 2024).

The assay deals with T1, KRAS G12C 1-169, his-tagged protein, GDP-loaded (Homo sapiens, UniProt P01116, G12C).
T1 construct: KRAS G12C 1-169, his-tagged protein, GDP-loaded; His tag
As to the kind of experiment: Biochemical assay: covalent modification of KRAS G12C, analysed by mass spectrometry (RapidFire/TOF or Q-Exactive). To be noted: Modification activity, modification percentage from MS peak intensities. The class given is binding. As for the experimental part:
Test compounds are prepared as 10 mM stock solutions in DMSO (Fisher cat. #BP-231-100). KRAS G12C 1-169, his-tagged protein, GDP-loaded is diluted to 2 μM or 0.5 μM in buffer (20 mM Hepes, 150 mM NaCl, 1 mM MgCl2). Compounds are tested for activity as follows:
Compounds are diluted to 50× final test concentration in DMSO in 96-well storage plates. Compound stock solutions are vortexed before use and observed carefully for any sign of precipitation. Dilutions are as follow: • For 32 μM final compound concentration, compounds are diluted to 1600 μM (3 μL 10 mM compound stock+15.75 μL DMSO and mixed well by pipetting. • For 8 μM final compound concentration, compounds are diluted to 400 μM (2 μL 10 mM compound stock+48 μL DMSO) and mixed well by pipetting. 49 μL of the stock protein solution is added to each well of a 96-well PCR plate (Fisher cat #1423027). 1 μl of the diluted 50× compounds are added to appropriate wells in the PCR plate using 12-channel pipettor. Reactions are mixed carefully and thoroughly by pipetting up/down with a 200 μL multi-channel pipettor. The plate is sealed well with aluminum plate seal, and protein and compound are allowed to react for a desired amount of time. 5 μL of 2% formic acid (Fisher cat #A117) in de-ionized H2O is then added to each well followed by mixing with a pipette to quench the reaction. The plate is then resealed with aluminum seal and stored frozen on dry ice until analyzed as described below.
The above described assays are analyzed by mass spectrometry according to one of the following two procedures:
The MS instrument is set to positive polarity, 2 GHz resolution, and low mass (1700) mode and allowed to equilibrate for 30 minutes. The instrument is then calibrated, switched to acquisition mode and the appropriate method loaded.
After another 30 minute equilibration time, a blank batch (i.e., buffer) is run to ensure equipment is operating properly. The samples are thawed at 37° C. for 10 minutes, briefly centrifuged, and transfer to the bench top. Wells A1 and H12 are spiked with 1 μL 500 μM internal standard peptide, and the plates centrifuged at 2000×g for 5 minutes. The method is then run and masses of each individual well recorded.
The masses (for which integration data is desired) for each well are pasted into the platemap and exported from the analysis. Masses for the internal standards are exported as well. The data at 50 ppm is extracted for the +19 charge state, and identity of well A1 is assigned using the internal standard spike and integrated. Peak data is exported as a TOF list and the above steps are repeated individually, for the +20, +21, +22, +23, +24, and +25 charge states.
The masses and peak intensities of KRAS G12C protein species are measured using a Dionex RSLCnano system (Thermo Scientific) connected to a Q Exactive Plus mass spectrometer (Thermo Scientific).
20 μL of sample is each loaded onto a Aeris™ 3.6 μm WIDEPORE C4 200 Å, LC Column 50×2.1 mm column maintained at 40° C. at a flow rate of 600 μL/min with 80% Solvent A (0.1% formic acid in H2O) and 20% Solvent B (0.1% formic acid in acetonitrile). The liquid chromatography conditions are 20% solvent B for 1 minute, 20% to 60% solvent B for 1.5 minutes, 60% to 90% solvent for 0.5 minute, 90% solvent B for 0.2 minute, 90% to 20% solvent B for 0.2 minute, and then equilibrated for 1.6 minute before the following sample injection. The flow rate is maintained at 600 μL/min throughout the sample analysis.
The mass spectrometer is operated in profile mode at a resolution of 17500, 5 microscans, using 50 msec max injection time and an AGC target of 1×10^6, and a full mass range from 800-1850 m/z is recorded. The intact protein mode is applied for optimal ion transfer and maximum sensitivity. The ionization method is electrospray ionization, which used a spray voltage of 4 kV, sheath gas flow set to 50 AU, auxiliary gas flow set to 10 AU and sweep gas flow set to 1 AU. […]
With `C=CC(=O)N1CC2(CCN(c3nc(OCCN4CCC(F)(F)C4)nc(-c4c(C)ccc5[nH]ncc45)c3C#N)C2)C1` [Compound I-21, 4-(2-acryloyl-2,6-diazaspiro[3.4]octan-6-yl)-2-(2-(3,3-difluoropyrrolidin-1-yl)ethoxy)-6-(5-methyl-1H-indazol-4-yl)pyrimidine-5-carbonitrile], the Binding % entry is “++ (++ indicates binding activity from 50 to 85%)”.

For the compound `C=CC(=O)N1CC2(CCN(c3nc(OC[C@@H]4CCCN4C)nc(-c4cc(O)ccc4C)c3C#N)C2)C1` [Compound I-22, (S)-4-(2-acryloyl-2,6-diazaspiro[3.4]octan-6-yl)-6-(5-hydroxy-2-methylphenyl)-2-((1-methylpyrrolidin-2-yl)methoxy)pyrimidine-5-carbonitrile], the Binding % result is “+ (+ indicates binding activity greater than 0% and up to 50%)”.

In the case of `C=CC(=O)N1CC2(CCN(c3nc(N4CCCC4=O)nc(-c4c(C)ccc5[nH]ncc45)c3C#N)C2)C1` [Compound I-23, 4-(2-acryloyl-2,6-diazaspiro[3.4]octan-6-yl)-6-(5-methyl-1H-indazol-4-yl)-2-(2-oxopyrrolidin-1-yl)pyrimidine-5-carbonitrile], the Binding % result is listed as “++ (++ indicates binding activity from 50 to 85%)”.

As for `C=CC(=O)N1CC2(CCN(c3nc(N4Cc5ccccc5C4)nc(-c4c(C)ccc5[nH]ncc45)c3C#N)C2)C1` [Compound I-24, 4-(2-acryloyl-2,6-diazaspiro[3.4]octan-6-yl)-2-(isoindolin-2-yl)-6-(5-methyl-1H-indazol-4-yl)pyrimidine-5-carbonitrile], the Binding % entry is on record as “++ (++ indicates binding activity from 50 to 85%)”.

On to `C=CC(=O)N1CC2(CCN(c3nc(OC4CCOCC4)nc(-c4c(C)ccc5[nH]ncc45)c3C#N)C2)C1` [Compound I-25, 4-(2-acryloyl-2,6-diazaspiro[3.4]octan-6-yl)-6-(5-methyl-1H-indazol-4-yl)-2-((tetrahydro-2H-pyran-4-yl)oxy)pyrimidine-5-carbonitrile], for which the Binding % result was “+ (+ indicates binding activity greater than 0% and up to 50%)”.

In the case of `C=CC(=O)N1CC2(CCN(c3nc(OC[C@@H]4CCCN4C)nc(-c4cccc5c4OCCO5)c3C#N)C2)C1` [Compound I-26, (S)-4-(2-acryloyl-2,6-diazaspiro[3.4]octan-6-yl)-6-(2,3-dihydrobenzo[b][1,4]dioxin-5-yl)-2-((1-methylpyrrolidin-2-yl)methoxy)pyrimidine-5-carbonitrile], the Binding % entry is “+ (+ indicates binding activity greater than 0% and up to 50%)”.

For `C=CC(=O)N1CC2(CCN(c3nc(N4CCC(F)(F)C4)nc(-c4c(C)ccc5[nH]ncc45)c3C#N)C2)C1` [Compound I-27, 4-(2-acryloyl-2,6-diazaspiro[3.4]octan-6-yl)-2-(3,3-difluoropyrrolidin-1-yl)-6-(5-methyl-1H-indazol-4-yl)pyrimidine-5-carbonitrile], the Binding % entry is “+++ (+++ indicates binding activity greater than 85%)”.

As to `C=CC(=O)N1CC2(CCN(c3nc(N4CCN(C)C(=O)C4)nc(-c4c(C)ccc5[nH]ncc45)c3C#N)C2)C1` [Compound I-28, 4-(2-acryloyl-2,6-diazaspiro[3.4]octan-6-yl)-6-(5-methyl-1H-indazol-4-yl)-2-(4-methyl-3-oxopiperazin-1-yl)pyrimidine-5-carbonitrile], the Binding % entry was “+++ (+++ indicates binding activity greater than 85%)”.

For the compound `C=CC(=O)N1CC2(CCN(c3nc(OC[C@@H]4CCCN4C)nc(-c4c(C)ccc5[nH]cnc45)c3C#N)C2)C1` [Compound I-29, 4-(2-acryloyl-2,6-diazaspiro[3.4]octan-6-yl)-6-(5-methyl-1H-benzo[d]imidazol-4-yl)-2-(((S)-1-methylpyrrolidin-2-yl)methoxy)pyrimidine-5-carbonitrile], the Binding % result is “+ (+ indicates binding activity greater than 0% and up to 50%)”.

Regarding `C=CC(=O)N1CC2(CCN(c3nc(N4CCN(C)CC4)nc(-c4c(C)ccc5[nH]ncc45)c3C#N)C2)C1` [Compound I-30, 4-(2-acryloyl-2,6-diazaspiro[3.4]octan-6-yl)-6-(5-methyl-1H-indazol-4-yl)-2-(4-methylpiperazin-1-yl)pyrimidine-5-carbonitrile], the Binding % result is recorded as “+++ (+++ indicates binding activity greater than 85%)”.

Regarding `C=CC(=O)N1CC2(CCN(c3nc(OC[C@@H]4CCCN4C)nc(-n4ccnc4)c3C#N)C2)C1` [Compound I-31, (S)-4-(2-acryloyl-2,6-diazaspiro[3.4]octan-6-yl)-6-(1H-imidazol-1-yl)-2-((1-methylpyrrolidin-2-yl)methoxy)pyrimidine-5-carbonitrile], the Binding % entry was “+ (+ indicates binding activity greater than 0% and up to 50%)”.

As for `C=CC(=O)N1CC2(CCN(c3nc(N4CCC5(CCN(C)CC5)C4)nc(-c4c(C)ccc5[nH]ncc45)c3C#N)C2)C1` [Compound I-32, 4-(2-acryloyl-2,6-diazaspiro[3.4]octan-6-yl)-6-(5-methyl-1H-indazol-4-yl)-2-(8-methyl-2,8-diazaspiro[4.5]decan-2-yl)pyrimidine-5-carbonitrile], the Binding % entry is recorded as “++ (++ indicates binding activity from 50 to 85%)”.

On to `C=CC(=O)N1CC2(CCN(c3nc(N4CCOCC4)nc(-c4c(C)ccc5[nH]nc(N)c45)c3C#N)C2)C1` [Compound I-33, 4-(2-acryloyl-2,6-diazaspiro[3.4]octan-6-yl)-6-(3-amino-5-methyl-1H-indazol-4-yl)-2-morpholinopyrimidine-5-carbonitrile], for which the Binding % result is on record as “+++ (+++ indicates binding activity greater than 85%)”.

As for `C=CC(=O)N1CC2(CCN(c3nc(N4CCCC4)nc(-c4c(C)ccc5[nH]nc(N)c45)c3C#N)C2)C1` [Compound I-34, 4-(2-acryloyl-2,6-diazaspiro[3.4]octan-6-yl)-6-(3-amino-5-methyl-1H-indazol-4-yl)-2-(pyrrolidin-1-yl)pyrimidine-5-carbonitrile], the Binding % entry is reported as “+++ (+++ indicates binding activity greater than 85%)”.

Take `C=CC(=O)N1CC2(CCN(c3nc(OC[C@@H]4CCCN4C)nc(-c4cnn(CCO)c4)c3C#N)C2)C1` [Compound I-35, (S)-4-(2-acryloyl-2,6-diazaspiro[3.4]octan-6-yl)-6-(1-(2-hydroxyethyl)-1H-pyrazol-4-yl)-2-((1-methylpyrrolidin-2-yl)methoxy)pyrimidine-5-carbonitrile]: the Binding % result was “+ (+ indicates binding activity greater than 0% and up to 50%)”.

With `C=CC(=O)N1CC2(CCN(c3nc(OC[C@@H]4CCCN4C)nc(Nc4ccccc4C(N)=O)c3C#N)C2)C1` [Compound I-36, (S)-2-((6-(2-acryloyl-2,6-diazaspiro[3.4]octan-6-yl)-5-cyano-2-((1-methylpyrrolidin-2-yl)methoxy)pyrimidin-4-yl)amino)benzamide], the Binding % result was “+ (+ indicates binding activity greater than 0% and up to 50%)”.

Consider `C=CC(=O)N1CC2(CCN(c3nc(OC[C@@H]4CCN(C)C4)nc(-c4c(C)ccc5[nH]ncc45)c3C#N)C2)C1` [Compound I-37, 4-(2-acryloyl-2,6-diazaspiro[3.4]octan-6-yl)-6-(5-methyl-1H-indazol-4-yl)-2-(((R)-1-methylpyrrolidin-3-yl)methoxy)pyrimidine-5-carbonitrile], for which the Binding % entry was “+ (+ indicates binding activity greater than 0% and up to 50%)”.
